Like-named read-outs stand apart in the source and are kept apart here.
Key:
[1] = target: T1, c-kit (Homo sapiens, UniProt P10721); assay: Inhibitory activity against c-kit autophosphorylation (MO7e cells, h-SCF); type: cell-based; conditions: for IC50: MO7e cells, read-out: c-kit IC50; for inhibition at 1 µM: Mo7e, at 1000 nM
T1 construct: MO7e (human megakaryocytic leukemia cell line) which had been arrested for 20 hr; endogenous in cells; host or cells: MO7e human megakaryocytic leukemia cell line
T1 sequence (P10721 26-976): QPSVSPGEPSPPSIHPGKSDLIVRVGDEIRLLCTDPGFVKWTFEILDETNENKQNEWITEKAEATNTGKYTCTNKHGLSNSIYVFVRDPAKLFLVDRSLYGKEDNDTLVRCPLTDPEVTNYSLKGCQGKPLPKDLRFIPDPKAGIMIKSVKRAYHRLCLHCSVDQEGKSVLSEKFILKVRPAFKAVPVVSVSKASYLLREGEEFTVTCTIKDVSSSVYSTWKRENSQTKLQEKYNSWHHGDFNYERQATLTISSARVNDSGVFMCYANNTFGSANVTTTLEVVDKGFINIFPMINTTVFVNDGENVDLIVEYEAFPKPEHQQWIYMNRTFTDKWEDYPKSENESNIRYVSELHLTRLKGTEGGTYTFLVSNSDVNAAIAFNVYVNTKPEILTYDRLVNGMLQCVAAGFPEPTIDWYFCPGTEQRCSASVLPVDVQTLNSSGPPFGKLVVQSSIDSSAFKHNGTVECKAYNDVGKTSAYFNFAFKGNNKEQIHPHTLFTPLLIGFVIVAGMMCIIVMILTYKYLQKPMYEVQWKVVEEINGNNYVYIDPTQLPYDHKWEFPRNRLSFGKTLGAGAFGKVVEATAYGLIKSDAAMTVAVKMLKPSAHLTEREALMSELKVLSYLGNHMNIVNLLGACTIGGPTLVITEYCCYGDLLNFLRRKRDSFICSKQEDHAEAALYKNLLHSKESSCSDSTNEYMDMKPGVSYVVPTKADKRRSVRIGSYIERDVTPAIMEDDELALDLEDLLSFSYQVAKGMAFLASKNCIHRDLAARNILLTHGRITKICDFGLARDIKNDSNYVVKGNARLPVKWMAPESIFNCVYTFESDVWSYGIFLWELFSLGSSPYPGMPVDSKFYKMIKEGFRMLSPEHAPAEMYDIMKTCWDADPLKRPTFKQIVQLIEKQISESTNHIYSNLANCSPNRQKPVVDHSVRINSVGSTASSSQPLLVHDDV
How it was run: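 First, human megakaryocytic leukemia MO7e cells arrested 20 hr receive compound for one hour. Second, SCF stimulation (50 ng/ml) runs 5 min, after which cells are solubilized. Third, tyrosine-phosphorylated c-kit in the lysate is quantified by sandwich ELISA with absorbance at 450 nm.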

[2] = target: T2, PDGF-Ra (Homo sapiens, UniProt P16234); assay: Inhibitory activity against PDGF-Ra phosphorylation by PDGF-AA stimulation using G292; type: cell-based; conditions: for IC50: > means inhibition at indicated concentration not more than 50%, < and << not less than 50%, read-out: PDGF (E) IC50; for inhibition at 0.1 µM: G292, figure within parentheses in >100( ), at 100 nM, read-out: PDGF (E) inhibition (%) at 100 nM
T2 construct: host or cells: G-292 human osteosarcoma cells
T2 sequence (P16234 24-1089): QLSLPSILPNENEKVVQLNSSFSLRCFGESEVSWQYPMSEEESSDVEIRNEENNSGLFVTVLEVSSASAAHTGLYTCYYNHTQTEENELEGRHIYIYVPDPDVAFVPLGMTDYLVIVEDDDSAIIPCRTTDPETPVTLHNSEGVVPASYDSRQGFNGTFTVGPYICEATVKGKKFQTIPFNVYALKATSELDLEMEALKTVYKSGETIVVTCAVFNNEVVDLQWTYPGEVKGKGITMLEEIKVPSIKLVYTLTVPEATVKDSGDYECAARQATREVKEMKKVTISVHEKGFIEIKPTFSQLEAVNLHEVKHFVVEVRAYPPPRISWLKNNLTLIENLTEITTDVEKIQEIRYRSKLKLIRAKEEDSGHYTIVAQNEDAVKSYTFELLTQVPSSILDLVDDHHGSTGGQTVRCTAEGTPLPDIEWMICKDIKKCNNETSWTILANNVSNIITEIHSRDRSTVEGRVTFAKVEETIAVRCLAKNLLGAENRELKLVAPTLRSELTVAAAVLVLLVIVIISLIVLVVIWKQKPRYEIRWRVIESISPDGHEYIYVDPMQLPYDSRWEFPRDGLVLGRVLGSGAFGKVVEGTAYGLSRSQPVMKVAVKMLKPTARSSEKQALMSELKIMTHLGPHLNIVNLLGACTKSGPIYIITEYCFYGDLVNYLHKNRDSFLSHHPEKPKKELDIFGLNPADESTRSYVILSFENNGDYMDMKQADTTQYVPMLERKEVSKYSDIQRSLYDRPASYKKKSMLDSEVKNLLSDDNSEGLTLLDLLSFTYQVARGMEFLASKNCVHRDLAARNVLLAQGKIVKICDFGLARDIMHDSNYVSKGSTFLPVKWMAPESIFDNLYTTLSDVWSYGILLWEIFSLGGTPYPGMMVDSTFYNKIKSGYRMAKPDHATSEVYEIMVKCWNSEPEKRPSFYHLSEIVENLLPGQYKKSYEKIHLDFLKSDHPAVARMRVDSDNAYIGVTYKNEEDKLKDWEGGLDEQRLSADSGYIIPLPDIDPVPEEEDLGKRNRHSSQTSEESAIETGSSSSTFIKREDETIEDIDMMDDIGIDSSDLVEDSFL
How it was run: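 In G-292 osteosarcoma cells kept overnight in 0.1% FBS, compound exposure (1 hr, 37 °C) preceded PDGF-AA stimulation at 50 ng/ml for 5 min; receptor phosphotyrosine was then detected by PY-20 capture ELISA.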

[3] = figure within parentheses in −( ) or >1000( )

SMILES	IC50 ([1]; 50 ng/ml h-SCF) [nM]	IC50 [2] [nM]	IC50 ([1]; h-SCF 50 ng/ml) [nM]	IC50 ([2]; Pharmacological Test Example 1) [nM]	further results
COc1cc2nccc(Oc3ccc(NC(=S)NCCCn4ccnc4)c(C)c3C)c2cc1OC [Example 543]	328	54	–	–	–
CCOc1ccccc1C(C)OC(=O)Nc1ccc(Oc2ccnc3cc(OC)c(OC)cc23)cc1 (stereo not shown) [Example 127, 1-(2-Ethoxyphenyl)ethyl N-{4-[(6,7-dimethoxy-4-quinolyl)oxy]phenyl}carbamate]	–	–	283	16	–
CCN(CC)CCOC(=O)Nc1ccc(Oc2ncnc3cc(OC)c(OC)cc23)cc1 [Example 436, 2-(Diethylamino)ethyl N-{4-[(6,7-dimethoxy-4-quinazolinyl)oxy]phenyl}carbamate]	878	> 100	–	–	inhibition at 0.1 µM [2]: 46%
COc1cc2ncnc(Oc3ccc(NC(=O)OCCSc4ccc(C)cc4)cc3)c2cc1OC [Example 140]	–	–	234	< 10	–
COc1cc2nccc(Oc3ccc(NC(=O)OCCCSc4ccc(C(C)(C)C)cc4)cc3)c2cc1OC [Example 72]	–	–	387	36	–
COc1cc2ncnc(Oc3ccc(NC(=O)OC(C)c4ccc(C)cc4)cc3)c2cc1OC (stereo not shown) [Example 135, 1-(4-Methylphenyl)ethyl N{4-[(6,7-dimethoxy-4-quinazolinyl)oxy]phenyl}carbamate]	–	–	475	18	–
COc1cc2nccc(Oc3ccc(NC(=O)Oc4ccc(-c5ccccc5)cc4)cc3)c2cc1OC [Example 294, 4-Phenylphenyl N-{4-[(6,7-dimethoxy-4-quinolyl)oxy]phenyl}carbamate]	–	–	109	15	–
CCOc1ccccc1C(C)OC(=O)Nc1ccc(Oc2ncnc3cc(OC)c(OC)cc23)cc1Cl (stereo not shown) [Example 131, 1-(2-Ethoxyphenyl)ethyl N-{-chloro-4-[(6,7-dimethoxy-4-quinazolinyl)oxy]phenyl}carbamate]	–	–	–	38	inhibition at 1 µM ([1]; figure in parentheses in −( )): 40%
COc1cccc(COC(=O)Nc2cc(C)c(Oc3ccnc4cc(OC)c(OC)cc34)cc2C)c1 [Example 240, 3-Methoxybenzyl N-{4-[(6,7-dimethoxy-4-quinolyl)oxy]-2,5-dimethylphenyl}carbamate]	–	–	248	17	–
COc1cccc(C(C)OC(=O)Nc2ccc(Oc3ccnc4cc(OC)c(OC)cc34)cc2)c1 (stereo not shown) [Example 52, 1-(3-Methoxyphenyl)ethyl N-{4-[(6,7-dimethoxy-4-quinolyl)oxy]phenyl}carbamate]	–	–	273	< 10	–
COc1cc2nccc(Oc3ccc(NC(=O)OCCCSc4ccc(Cl)cc4C)c(C)c3C)c2cc1OC [Example 78, 3-[(4-Chloro-2-methylphenyl)sulfanyl]propyl N-{4-[(6,7-dimethoxy-4-quinolyl)oxy]-2,3-dimethylphenyl}carbamate]	–	–	129	16	–
COc1cc2nccc(Oc3ccc(NC(=O)OC(C)c4cccc(N(C)C)c4)cc3)c2cc1OC (stereo not shown) [Example 199, 1-[3-(Dimethylamino)phenyl]ethyl N-{4-[(6,7-dimethoxy-4-quinolyl)oxy]phenyl}carbamate]	–	–	807	35	–
COc1cc2nccc(Oc3ccc(NC(=O)OC(C)c4cccc(C(F)(F)F)c4)cc3)c2cc1OC (stereo not shown) [Example 87, 1-[3-(Trifluoromethyl)phenyl]ethyl N-{4-[(6,7-dimethoxy-4-quinolyl)oxy]phenyl}carbamate]	–	–	607	< 10	–
COc1cc2nccc(Oc3ccc(NC(=O)OC(C)c4cccc(Cl)c4)c(C)c3C)c2cc1OC (stereo not shown) [Example 4, 1-(3-Chlorophenyl)ethyl N-{4-[(6,7-dimethoxy-4-quinolyl)oxy]-2,3-dimethylphenyl}carbamate]	–	–	133	< 10	–

The next lines start with results.

IC50 ([1]; 50 ng/ml h-SCF) [nM]	IC50 [2] [nM]	IC50 ([1]; h-SCF 50 ng/ml) [nM]	IC50 ([2]; Pharmacological Test Example 1) [nM]	SMILES	further results
128	26	–	–	COc1cc2nccc(Oc3ccc(NC(=O)OC4CCOCC4)cc3)c2cc1OC [Example 470, Tetrahydro-2H-4-pyranyl N-{4-[(6,7-dimethoxy-4-quinolyl)oxy]phenyl}carbamate]	–
–	> 100	–	–	CCCCCOc1ccc(C(=O)NC(=S)Nc2ccc(Oc3ccnc4cc(OC)c(OC)cc34)cc2)cc1 [Example 753, N-{4-[(6,7-Dimethoxy-4-quinolyl)oxy]phenyl}-N′-[4-(pentyloxy)benzoyl]thiourea]	inhibition at 1 µM [1, 3]: 9%; inhibition at 0.1 µM [2]: 28%
759	35	–	–	CCC(C(=O)NC(=S)Nc1ccc(Oc2ccnc3cc(OC)c(OC)cc23)cc1)c1ccccc1 (stereo not shown) [Example 747, N-{4-[(6,7-Dimethoxy-4-quinolyl)oxy]phenyl}-N′-(2-phenylbutanoyl)thiourea]	–
439	< 10	–	–	COc1cc2nccc(Oc3ccc(OCCCOc4ccc(F)cc4)cc3)c2cc1OC [Example 798, 4-{4-[3-(4-Fluorophenoxy)propoxy]phenoxy}-6,7-dimethoxyquinoline]	–
–	> 100	–	–	COc1cc2ncnc(Oc3ccc(NC(=S)NN4CCCCC4)cc3)c2cc1OC [Example 524, N-{4-[(6,7-Dimethoxy-4-quinazolinyl)oxy]phenyl}-N′-(1-piperidinyl)thiourea]	inhibition at 1 µM [1, 3]: 21%; inhibition at 0.1 µM [2]: 21%
–	13	–	–	COc1cc2ncnc(Oc3ccc(NC(=S)NC(=O)CCc4cccc(C)c4)cc3)c2cc1OC [Example 1185, N-{4-[(6,7-Dimethoxy-4-quinazolinyl)oxy]phenyl}-N′-[3-(3-methylphenyl)propanoyl]thiourea]	inhibition at 1 µM ([1]; figure in parentheses in −( )): 26%
107	< 10	–	–	COc1cccc(NCCOc2ccc(Oc3ccnc4cc(OC)c(OC)cc34)cc2)c1 [Example 779, N-(2-{4-[(6,7-Dimethoxy-4-quinolyl)oxy]phenoxy}ethyl)-N-(3-methoxyphenyl)amine]	–
224	36	–	–	COc1cc2nccc(Oc3cc(C)c(NC(=O)NCCN4CCOCC4)cc3C)c2cc1OC [Example 616, N-{4-[(6,7-Dimethoxy-4-quinolyl)oxy]-2,5-dimethylphenyl}-N′-(2-morpholinoethyl)urea]	–
–	> 100	–	–	CCCC1CCC(C(=O)NC(=S)Nc2ccc(Oc3ccnc4cc(OC)c(OC)cc34)c(Cl)c2)CC1 (stereo not shown) [Example 1196, N-{3-Chloro-4-[(6,7-dimethoxy-4-quinolyl)oxy]phenyl}-N′-[(4-propylcyclohexyl)carbonyl]thiourea]	IC50 ([1]; h-SCF stimulation): 700 nM
186	29	–	–	COc1ccccc1CC(=O)NC(=S)Nc1ccc(Oc2ccnc3cc(OC)c(OC)cc23)cc1 [Example 733, N-{4-[(6,7-Dimethoxy-4-quinolyl)oxy]phenyl}-N′-[2-(2-methoxyphenyl)acetyl]thiourea]	–
–	51	–	–	COc1cc2ncnc(Oc3ccc(NC(=S)NCCCN4CCCCC4C)cc3)c2cc1OC (stereo not shown) [Example 534, N-{4-[(6,7-Dimethoxy-4-quinazolinyl)oxy]phenyl}-N′-{3-[1-(2-methylpiperidinyl)]propyl}thiourea]	inhibition at 1 µM [1, 3]: 35%
864	> 100	–	–	COc1cc2ncnc(Oc3ccc(NC(=O)NN4CCCCC4)cc3)c2cc1OC [Example 603, N-{4-[(6,7-Dimethoxy-4-quinazolinyl)oxy]phenyl}-N′-(1-piperidinyl)urea]	inhibition at 0.1 µM [2]: 42%
–	17	–	–	COc1cc2ncnc(Oc3ccc(OCCCn4ccc5ccccc54)cc3)c2cc1OC [Example 811, 4-{4-[3-(1H-1-Indolyl)propoxy]phenoxy}-6,7-dimethoxyquinazoline]	inhibition at 1 µM ([1]; figure in parentheses in −( )): 20%
–	34	–	–	CCCCN(CCCC)CCNC(=O)Nc1ccc(Oc2ncnc3cc(OC)c(OC)cc23)cc1OC [Example 688, N-[2-(Dibutylamino)ethyl]-N′-{4-[(6,7-dimethoxy-4-quinazolinyl)oxy]-2-methoxyphenyl}urea]	inhibition at 1 µM [1, 3]: 19%
–	87	–	–	CCCCc1ccc(C(=O)NC(=S)Nc2ccc(Oc3ccnc4cc(OC)c(OC)cc34)cc2F)cc1 [Example 995, N-(4-Butylbenzoyl)-N′-{4-[(6,7-dimethoxy-4-quinolyl)oxy]-2-fluorophenyl}thiourea]	inhibition at 1 µM ([1]; figure in parentheses in −( )): 23%
447	48	–	–	CCN(CCNC(=S)Nc1cc(C)c(Oc2ccnc3cc(OC)c(OC)cc23)cc1C)c1ccccc1C [Example 540, N-{4-[(6,7-Dimethoxy-4-quinolyl)oxy]-2,5-dimethylphenyl}-N′-{2-[N-ethyl-N-(o-tolyl)amino]-ethyl}thiourea]	–
–	24	–	–	COc1cc2nccc(Oc3ccc(NC(=S)NC(=O)C4CC4C)cc3Cl)c2cc1OC (stereo not shown) [Example 1190, N-{3-Chloro-4-[(6,7-dimethoxy-4-quinolyl)oxy]phenyl}-N′-[(2-methylcyclopropyl)carbonyl]thiourea]	IC50 ([1]; h-SCF stimulation): 240 nM
–	38	–	–	COc1cc2nccc(Oc3ccc(NC(=S)NC(=O)N(C)c4ccccc4)cc3)c2cc1OC [Example 1046, N-{4-[(6,7-Dimethoxy-4-quinolyl)oxy]phenyl}-{[(methylanilino)carbonyl]amino}methanethioamide]	IC50 ([1]; h-SCF stimulation): 202 nM
61	< 10	–	–	COc1cc2ncnc(Oc3ccc(OCCCOc4ccc(F)cc4)cc3)c2cc1OC [Example 808, 4-{4-[3-(4-Fluorophenoxy)propoxy]phenoxy}-6,7-dimethoxyquinazoline]	–

Source: patent US7135466B2 (Kirin Beer Kabushiki Kaisha, priority 1999, dated 2006)
